Measured values taken from patent publication US4711886A, “β-lactam derivatives as anti-inflammatory and antidegenerative agents” (Merck & Co., Inc., priority 1984, dated 1987).
Where two headings read alike, the source gives them in different places.

Target: T1, Human Polymorphonuclear Leukocyte Elastase (Homo sapiens, UniProt P08246)
T1 construct: Crude extract of human polymorphonuclear leukocytes (PMN) containing elastase activity; endogenous in cells; host or cells: human polymorphonuclear leukocytes (crude extract)
T1 sequence (P08246 30-247 limits assumed): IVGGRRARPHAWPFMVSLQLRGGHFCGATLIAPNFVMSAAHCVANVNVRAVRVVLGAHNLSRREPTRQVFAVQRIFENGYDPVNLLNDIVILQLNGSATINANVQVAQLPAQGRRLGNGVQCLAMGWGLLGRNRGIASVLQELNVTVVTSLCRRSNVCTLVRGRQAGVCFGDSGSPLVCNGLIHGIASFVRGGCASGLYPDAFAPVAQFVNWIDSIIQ
Experiment: Inhibition of human polymorphonuclear leukocyte elastase via hydrolysis of N-t-Boc-alanyl-alanyl-prolyl-alanine-p-nitroanilide
Format: biochemical
Settings: 50% inhibition of enzyme activity 2 minutes after zero time, crude PMN extract, Boc-AAPAN substrate, pH 7.5
Protocol: Enzyme Assays for the Inhibition of Human Polymorphonuclear Leukocyte Elastase Via Hydrolysis of N-t-Boc-alanyl-alanyl-prolylalanine-p-nitroanilide
0.05M TES (N-tris[hydroxymethyl]methyl-2-amino-ethanesulfonic acid) buffer, pH 7.5.
0.2 mM N-t-Boc-alanyl-alanyl-prolyl-alanine-p-nitroanilide (Boc-AAPAN).
To prepare substrate, the solid (m.w. 550) was first dissolved in 10.0 ml DMSO. Buffer at pH 7.5 was then added to a final volume of 100 ml.
Crude extract of human polymorphonuclear leukocytes (PMN) containing elastase activity.
Inhibitors (β-lactam derivatives) to be tested dissolved in DMSO just before use.
To 1.0 ml of 0.2 mM Boc-AAPAN in a cuvette, 0.01-0.1 ml of DMSO with or without inhibitor was added. After mixing, a measurement was taken at 410 mμ to detect any spontaneous hydrolysis due to presence of test compound. 0.05 Milliliters of PMN extract was then added and the ΔOD/min at 410 mμ was measured and recorded. Beckman model 35 spectrophotometer was used.
The elastase activity in the crude PMN extract may vary from one preparation to another. A control of each new batch is run, and the volume added in the assay procedure is adjusted according to activity.

[1] = Table III, penems, read-out: IC50 (converted)

| IC50 [1] [µM] | SMILES | further results |
| --- | --- | --- |
| – | O=C(OCc1ccccc1)C1C(=CCO)OC2CC(=O)N21 (stereo not shown) [B1 = CH2 C6 H5] | IC50 (Table IV, clavulanic acid series, read-out: IC50 (converted)): 10.4 µM |
| 6.55 | CCOC1=C(C(=O)OCc2ccccc2)N2C(=O)CC2S1 (stereo not shown) | – |
| 14.5 | CC1=C(C(=O)OCc2ccccc2)N2C(=O)C[C@H]2S1 [R1 = H, n = 0, M = CH3, B = OCH2 C6 H5, benzyl 2-methylpenem-3-carboxylate] | – |
| – | O=C(O)[C@H]1/C(=C/CO)O[C@@H]2CC(=O)N21 [clavulanic acid, reference compound] | IC50 (Table IV, clavulanic acid series): inactive |
| 4.87 | CCSC1=C(C(=O)OCc2ccc([N+](=O)[O-])cc2)N2C(=O)C(C(C)O)C2S1 (stereo not shown) | – |
| 11 | COC1C(=O)N2C(C(=O)OCc3ccccc3)=C(COC(C)=O)SC12 (stereo not shown) | – |
| 0.367 | CCSC1=C(C(=O)OCc2ccc([N+](=O)[O-])cc2)N2C(=O)C(C(C)OC(=O)OCc3ccccc3)C2S1 (stereo not shown) | – |
